Test results from patent US20070129344A1, “Bicyclic 6-alkylidene-penem beta-lactamase inhibitors and beta-lactam antibiotic combination: a broad spectrum antibiotic” (priority 2005, published 2007).
Counter-ions that a name gives are not always drawn.

What was measured:
E. coli GC 2920 (IRT-2) = test: MIC microbroth dilution; β-lactamase class A (IRT); type: cell-based; conditions: Escherichia coli, Cefepime + 4 ug/ml Compound 2, read-out: MIC
Experimental: (§1) The in vitro activities of the antibiotics were determined by the microbroth dilution method as recommended by the National Committee for Clinical Laboratory Standards (NCCLS). (NCCLS. 2000. Methods for Dilution Antimicrobial Susceptibility Tests for Bacteria That Grow Aerobically; Approved Standards: M7-A5, vol. 19. National Committee for Clinical Laboratory Standards, Villanova, Pa.). Mueller-Hinton II broth (MHBII)(BBL Cockeysville, Md.), was used for the testing procedure. […]. The plates were incubated for 18-22 hours at 35° C. in ambient air.

E. coli GC 6368 (SHV-7) = test: MIC microbroth dilution; β-lactamase class A (ESBL); type: cell-based; conditions: Escherichia coli, Cefepime + 4 ug/ml Compound 2, read-out: MIC
Experimental: as §1

E. coli GC 2400 (TEM-43) = test: as above; type: cell-based; conditions: Escherichia coli, Cefepime + 4 ug/ml Compound 2, read-out: MIC
Experimental: as §1

[1] = tested on: S. typhimurium GC 4197 CTX-M-5; test: as above; type: cell-based; conditions: Salmonella enterica, Cefepime + 4 ug/ml Compound 2, read-out: MIC
Experimental: as §1

[2] = tested on: E. coli GC 2017 (TEM-10 + pl 6.3; 8.1); test: as above; type: cell-based; conditions: Escherichia coli, Cefepime + 4 ug/ml Compound 2, read-out: MIC
Experimental: as §1

E. coli GC 2300 (TEM-28) = test: as above; type: cell-based; conditions: Escherichia coli, Cefepime + 4 ug/ml Compound 2, read-out: MIC
Experimental: as §1

E. coli GC 1995 (TEM-10) = test: as above; type: cell-based; conditions: Escherichia coli, Cefepime + 4 ug/ml Compound 2, read-out: MIC
Experimental: as §1

E. coli GC 1684 (TEM-10) = test: as above; type: cell-based; conditions: Escherichia coli, Cefepime + 4 ug/ml Compound 2, read-out: MIC
Experimental: as §1

[3] = tested on: C. freundii GC 4171 TEM-1 + InducibleAmpC; test: MIC microbroth dilution; β-lactamase class A, C; type: cell-based; conditions: Citrobacter freundii
Experimental: as §1

[4] = tested on: E. cloacae GC 7052 SHV-5, Amp C inducable; test: MIC microbroth dilution; β-lactamase class A (ESBL), C; type: cell-based; conditions: Enterobacter cloacae, Cefepime + 4 ug/ml Compound 2, read-out: MIC
Experimental: as §1

[5] = tested on: E. aerogenes GC 7036 TEM-24, Amp C inducable; test: as above; type: cell-based; conditions: Klebsiella aerogenes, Cefepime + 4 ug/ml Compound 2, read-out: MIC
Experimental: as §1

[6] = tested on: E. cloacae GC 7065 TEM-26, SHV-12 Amp C inducable; test: as above; type: cell-based; conditions: Enterobacter cloacae, Cefepime + 4 ug/ml Compound 2, read-out: MIC
Experimental: as §1

[7] = tested on: E. aerogenes GC 7039 TEM-4, Amp C inducable; test: as above; type: cell-based; conditions: Klebsiella aerogenes, Cefepime + 4 ug/ml Compound 2, read-out: MIC
Experimental: as §1

[8] = tested on: M. morganii GC 1617 TEM-10 + inducible AmpC; test: as above; type: cell-based; conditions: Morganella morganii, Cefepime + 4 ug/ml Compound 2, read-out: MIC
Experimental: as §1

[9] = tested on: E. coli GC 4971 OXA-1, TEM-1; test: MIC microbroth dilution; β-lactamase class A, D; type: cell-based; conditions: Escherichia coli, Cefepime + 4 ug/ml Compound 2, read-out: MIC
Experimental: as §1

[10] = tested on: K. pn GC 3104 (MIR-1 + TEM-1); test: MIC microbroth dilution; β-lactamase class A, C; type: cell-based, K. pneumoniae; conditions: Klebsiella pneumoniae, Cefepime + 4 ug/ml Compound 2, read-out: MIC
Experimental: as §1

[11] = tested on: K. pn GC 6655 (TEM-1 + ACT-1); test: MIC microbroth dilution; β-lactamase class A, C; type: cell-based, K. pneumoniae; conditions: Klebsiella pneumoniae, Cefepime + 4 ug/ml Compound 2, read-out: MIC
Experimental: as §1

[12] = tested on: K. pn GC 2391 (pl 5.4; 5.6; 7.6; 8.7 B-lactamases); test: MIC microbroth dilution; β-lactamase class A, A (ESBL), C; type: cell-based, K. pneumoniae; conditions: Klebsiella pneumoniae, Cefepime + 4 ug/ml Compound 2, read-out: MIC
Experimental: as §1

[13] = tested on: S. marcescens GC 4132 (AmpC); test: MIC microbroth dilution; β-lactamase class C; type: cell-based; conditions: Serratia marcescens, Cefepime + 4 ug/ml Compound 2, read-out: MIC
Method in brief: (§2)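 Following NCCLS standard M7-A5, antibiotics were tested by microbroth dilution in MHBII; plates sat 18-22 hours at 35° C. under ambient atmosphere.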

[14] = tested on: P. aeruginosa GC 3153 Inducible AmpC; test: MIC microbroth dilution; β-lactamase class C; type: cell-based; conditions: Pseudomonas aeruginosa, Cefepime + 4 ug/ml Compound 2, read-out: MIC
Method in brief: as §2

[15] = tested on: S. marcescens GC 4145 Inducible AmpC; test: MIC microbroth dilution; β-lactamase class C; type: cell-based; conditions: Serratia marcescens, Cefepime + 4 ug/ml Compound 2, read-out: MIC
Method in brief: as §2

[16] = tested on: E. aerogenes 1697-MP GC 7845 AmpC; test: MIC microbroth dilution; β-lactamase class C; type: cell-based; conditions: Klebsiella aerogenes; E. aerogenes GC 7845; Cefepime + 4 ug/ml Compound 2; read-out: MIC
Method in brief: as §2

[17] = tested on: E. cloacae GC 1477 (AmpC); test: MIC microbroth dilution; β-lactamase class C; type: cell-based; conditions: Enterobacter cloacae, Cefepime + 4 ug/ml Compound 2, read-out: MIC
Method in brief: as §2

[18] = tested on: K. pneumoniae GC 7824 Fox 5; test: MIC microbroth dilution; β-lactamase class C; type: cell-based; conditions: Klebsiella pneumoniae, GC7824FOX5, Cefepime + 4 ug/ml Compound 2, read-out: MIC
Method in brief: as §2

[19] = tested on: K. pneumoniae GC 7820 Act 1; test: MIC microbroth dilution; β-lactamase class C; type: cell-based; conditions: Klebsiella pneumoniae, GC7820ACT1, K. pneumoniae GC 7820; Cefepime + 4 ug/ml Compound 2; read-out: MIC
Method in brief: as §2

[20] = tested on: E. cloacae PT 1494 Inducible AmpC; test: MIC microbroth dilution; β-lactamase class C; type: cell-based; conditions: Enterobacter cloacae, Cefepime + 4 ug/ml Compound 2, read-out: MIC
Method in brief: as §2

[21] = tested on: E. cloacae GC 1712 AmpC-inducible; test: MIC microbroth dilution; β-lactamase class C; type: cell-based; conditions: Enterobacter cloacae, Cefepime + 4 ug/ml Compound 2, read-out: MIC
Method in brief: as §2

E. coli GC 6539 CMY-2 = test: MIC microbroth dilution; β-lactamase class C; type: cell-based; conditions: Escherichia coli, GC6539CMY2, Cefepime + 4 ug/ml Compound 2, read-out: MIC
Method in brief: as §2

[22] = tested on: P. aeruginosa GC 1763 AmpC-inducible; test: MIC microbroth dilution; β-lactamase class C; type: cell-based; conditions: Pseudomonas aeruginosa, Cefepime + 4 ug/ml Compound 2, read-out: MIC
Method in brief: as §2

[23] = tested on: A. baumannii GC 7687 AmpC; test: MIC microbroth dilution; β-lactamase class C; type: cell-based; conditions: Acinetobacter baumannii, GC7687AMPC, Cefepime + 4 ug/ml Compound 2, read-out: MIC
Method in brief: as §2

E. cloacae GC 1475 (P99) = test: MIC microbroth dilution; β-lactamase class C; type: cell-based; conditions: Enterobacter cloacae, Cefepime + 4 ug/ml Compound 2, read-out: MIC
Method in brief: as §2

[24] = tested on: C. freundii GC 4164 Inducible AmpC; test: MIC microbroth dilution; β-lactamase class C; type: cell-based; conditions: Citrobacter freundii, Cefepime + 4 ug/ml Compound 2, read-out: MIC
Method in brief: as §2

[25] = tested on: K. pneumoniae GC 7822 Act 1; test: MIC microbroth dilution; β-lactamase class C; type: cell-based; conditions: Klebsiella pneumoniae, GC7822ACT1, Cefepime + 4 ug/ml Compound 2, read-out: MIC
Method in brief: as §2

E. coli GC 2894 (AmpC) = test: MIC microbroth dilution; β-lactamase class C; type: cell-based; conditions: Escherichia coli, Cefepime + 4 ug/ml Compound 2, read-out: MIC
Method in brief: as §2

[26] = tested on: E. coli GAR 5929 TEM, OXA, Act-1, CTX (By PCR only); test: MIC microbroth dilution; β-lactamase class A, C, D; type: cell-based; conditions: Escherichia coli, Cefepime + 4 ug/ml Compound 2, read-out: MIC
Experimental: as §1

Measured: MIC

O=C(O)C1=CS[C@@H]2/C(=C\c3cn4c(n3)COCC4)C(=O)N12 [Compound 2, (5R), (6Z)-6-(5,6-Dihydro-8H-imidazo[2.1-c][1,4]oxazin-2-ylmethylene)-7-oxo-4-thia-1-azabicyclo[3.2.0]hept-2-ene-2-carboxylic Acid, Sodium Salt]
0.5 µg/mL: E. coli GC 2400 (TEM-43) | [10] | [12] | [25]
0.25 µg/mL: [1] | E. coli GC 2300 (TEM-28) | [15] | [17] | [18] | [19]
0.03 µg/mL: E. coli GC 1995 (TEM-10) | [16]
0.12 µg/mL: [8] | [9] | [11] | [13] | [21] | E. cloacae GC 1475 (P99) | [24] | [26]
2 µg/mL: [22]
8 µg/mL: [14]
1 µg/mL: [4]
16 µg/mL: [23]
0.06 µg/mL: all other assays above
